Where a SMILES comes first, the peptide text is derived from it. The star is where a group is joined. X1 = COc1cccc2c1C(=O)c1c(O)c3c(c(O)c1C2=O)C[C@@](O)(C(=O)CO)C[C@@H]3O[C@H]1C[C@H](NC(=O)C2CCC(CN3C(=O)CC(*)C3=O)CC2)[C@H](O)[C@H](C)O1
Key:
[1] = tested on: TNBC cells (MDA-MB-468, 231, and 436); assay: SPOT peptide array library screen for binding to TNBC cells versus normal breast cells; assay type: cell-based; details: peptide array incubated with TNBC cells (MDA-MB-468, 231, 436) or normal breast cells (MCF-10A, 12A); relative to lead GE11
Experimental: A library of 30 peptide sequences (in duplicates, total 60 peptides) was synthesized in an array format on functionalized cellulose membrane using SPOT synthesis. The peptide library was screened for identifying EGFR binding peptide in TNBC cells by incubating the library with TNBC cells (MDA-MB-468, 231, and 436) or normal breast (MCF-10A and 12A) cells.

MDA-MB-468 = assay: Cytotoxicity MTT/MTS assay, MDA-MB-468; assay type: cell-based; details: MDA-MB-468 (TNBC) cells
Text: (§1) FIG. 4A-C depicts the cytotoxicity of PDoxC, obtained by […], for three cell lines (MDA-MB-231 [FIG. 4A], MDA-MB-468 [FIG. 4B], and MCF-10A [FIG. 4C]). Cell viability is plotted against drug concentration (PDoxC or Dox) to obtain IC50 values. Each experimental point was done in duplicates or triplicates and the experiment was repeated once.
(§2) Next, the cytotoxicity of the peptide 31 PDoxC was compared to the DOX (free drug) using MTS assay (FIG. 4A-C). Three cell lines were used, two TNBC cell lines (MDA-MB-231 and MDA-MB-468) and one non-cancerous mammary epithelial MCF-10A cell line. […] This peptide 31 PDoxC is very promising as this level of selectivity has never been observed with previously reported peptide-drug conjugates.

MCF-10A = assay: Cytotoxicity MTT/MTS assay, MCF-10A; assay type: cell-based; details: MCF-10A non-cancerous mammary epithelial cells; highest tested concentration 25 μM
Text: as §1, §2

MDA-MB-231 = assay: Cytotoxicity MTT/MTS assay, MDA-MB-231; assay type: cell-based; details: MDA-MB-231 (TNBC) cells
Text: as §1, §2

[2] = Stability of PDoxC in mouse serum at 37° C. (RP-HPLC); assay type: in vitro ADME; details: HPLC peak AUC
Experimental: (§3) FIG. 3 depicts the stability of the PDoxC in the presence of human or mouse serum at 37° C. The PDoxC was incubated with human or mouse serum and aliquots were removed at different time intervals for HPLC analysis. The AUC for PDoxC peak was used to calculate the percent intact at different time points.
(§4) The stability of the peptide 31 PDoxC was evaluated by incubating it with human or mouse serum at 37° C. (FIG. 3). Aliquots were removed at regular intervals to analyze the PDoxC using RP-HPLC.

[3] = Stability of PDoxC in human serum at 37° C. (RP-HPLC); assay type: in vitro ADME; details: HPLC peak AUC
Experimental: as §3, §4

[4] = Stability of peptide GE11 in human serum at 37° C. (RP-HPLC); assay type: in vitro ADME
Experimental: Peptide was incubated with human serum at 37° C., and aliquots were removed at different time intervals for HPLC analysis.
Peptides show low proteolytic stability when administered systemically and must be stabilized for clinical application. […] The three N-terminal amino acids (1Y, 2H, 3W) were cleaved sequentially by proteolysis, giving three fragments (A, B, and C, Table 2)) that appear in the HPLC chromatograms. […] Therefore, blocking the N-terminus of the peptide with a chemotherapeutic drug yields a stable conjugate.

EGFR in MDA-MB-231 cells = assay: EGF competition assay of FITC labeled peptide uptake by flow cytometry; assay type: cell-based
Text: (§5) The specific binding and uptake of peptide 22 (FITC labeled peptide) by EGFR in TNBC cells was confirmed by competition assay using flow cytometry.

[5] = tested on: noncancerous mammary epithelial cells (MCF-10A and MCF12A); assay: Peptide uptake by noncancerous mammary epithelial cells; assay type: cell-based
[6] = tested on: EGFR expressing TNBC cells (MDA-MB-231 and MDA-MB-468); assay: Peptide uptake by EGFR expressing TNBC cells; assay type: cell-based
Text: as §5

[7] = target: T1, epidermal growth factor receptor (EGFR) on TNBC cells (UniProt P00533 25-1210, limits assumed); assay: SPOT peptide array on cellulose membrane incubated with TNBC cells (MDA-MB-468, 231, 436) or normal breast cells
T1 construct: whole, on cells; also called ErbB1

YHWYGYTPQKVI [Peptide 27]
specific affinity for TNBC cells [1]: higher specific affinity

COc1cccc2c1C(=O)c1c(O)c3c(c(O)c1C2=O)C[C@@](O)(C(=O)CO)C[C@@H]3O[C@H]1C[C@H](N)[C@H](O)[C@H](C)O1 [Free Dox, doxorubicin, reference compound]
IC50 (MDA-MB-468): 570 nM | IC50 (MCF-10A): 1410 nM

CC[C@H](C)[C@H](NC(=O)[C@@H](NC(=O)[C@H](CCCNC(=N)N)NC(=O)[C@H](CCC(=O)O)NC(=O)[C@@H]1CCCN1C(=O)[C@@H](NC(=O)[C@H](Cc1ccc(O)cc1)NC(=O)CNC(=O)[C@H](Cc1ccc(O)cc1)NC(=O)[C@H](Cc1c[nH]c2ccccc12)NC(=O)[C@H](Cc1c[nH]cn1)NC(=O)[C@H](Cc1ccc(O)cc1)NC(=O)[C@@H](N)CSC1CC(=O)N(CC2CCC(C(=O)N[C@H]3C[C@H](O[C@H]4C[C@](O)(C(=O)CO)Cc5c(O)c6c(c(O)c54)C(=O)c4c(OC)cccc4C6=O)O[C@@H](C)[C@H]3O)CC2)C1=O)[C@@H](C)O)C(C)C)C(=O)O (some centres unmarked) [PDoxC] (H-C(X1)YHWYGYTPERVI-OH; N-terminus and C-terminus assumed)
IC50 (MDA-MB-468): 2750 ± 570 nM | IC50 ± SD (MCF-10A): no toxicity | IC50 (MDA-MB-231): 2370 ± 550 nM | half-life [2]: 4 h | half-life [3]: 12.7 h

YHWYGYTPKNVI [Peptide 26]
specific affinity for TNBC cells [1]: higher specific affinity

YHWYGYTPQDVI [Peptide 23]
specific affinity for TNBC cells [1]: higher specific affinity

CC[C@H](C)[C@H](NC(=O)[C@@H](NC(=O)[C@H](CC(N)=O)NC(=O)[C@H](CCC(N)=O)NC(=O)[C@@H]1CCCN1C(=O)[C@@H](NC(=O)[C@H](Cc1ccc(O)cc1)NC(=O)CNC(=O)[C@H](Cc1ccc(O)cc1)NC(=O)[C@H](Cc1c[nH]c2ccccc12)NC(=O)[C@H](Cc1c[nH]cn1)NC(=O)[C@@H](N)Cc1ccc(O)cc1)[C@@H](C)O)C(C)C)C(=O)O [GE11]
% Intact GE11 ([4]; 0 h): 100% | remaining at 1 h ([4]; 1 h): 49% | remaining at 3 h ([4]; 3 h): 18% | % Intact GE11 ([4]; 7 h): 2% | remaining at 7 h ([4]; 7 h): 2%

YHWYGYTPENVI [Peptide 22, used FITC labeled in uptake assays]
specific affinity for TNBC cells [1]: higher specific affinity | FITC-positive MDA-MB-231 cells (EGFR in MDA-MB-231 cells; FITC labeled peptide alone, without excess EGF): 99% | FITC-positive MDA-MB-231 cells (EGFR in MDA-MB-231 cells; FITC labeled peptide in the presence of excess EGF protein): 2% | uptake by noncancerous mammary epithelial cells [5]: minimal uptake | uptake by EGFR expressing TNBC cells compared to the lead GE11 [6]: 47-123 fold

YHWYGYTPQDVI (made on a cellulose membrane by SPOT synthesis in the library screen) [peptide 23]
binding result [7]: binds

YHWYGYTPQKVI (made on a cellulose membrane by SPOT synthesis in the library screen, 12-mer derived from GE11 (N10K)) [peptide 27]
binding result [7]: binds

YHWYGYTPKNVI (made on a cellulose membrane by SPOT synthesis in the library screen) [peptide 26]
binding result [7]: binds
